Assay results taken from patent US7893077B2, “Bisaryl-sulfonamides” (Amgen Inc., priority 2004, dated 2011).

Target: T1, PPARγ (Homo sapiens, UniProt P37231)
T1 construct: made in house
T1 sequence (P37231 1-505): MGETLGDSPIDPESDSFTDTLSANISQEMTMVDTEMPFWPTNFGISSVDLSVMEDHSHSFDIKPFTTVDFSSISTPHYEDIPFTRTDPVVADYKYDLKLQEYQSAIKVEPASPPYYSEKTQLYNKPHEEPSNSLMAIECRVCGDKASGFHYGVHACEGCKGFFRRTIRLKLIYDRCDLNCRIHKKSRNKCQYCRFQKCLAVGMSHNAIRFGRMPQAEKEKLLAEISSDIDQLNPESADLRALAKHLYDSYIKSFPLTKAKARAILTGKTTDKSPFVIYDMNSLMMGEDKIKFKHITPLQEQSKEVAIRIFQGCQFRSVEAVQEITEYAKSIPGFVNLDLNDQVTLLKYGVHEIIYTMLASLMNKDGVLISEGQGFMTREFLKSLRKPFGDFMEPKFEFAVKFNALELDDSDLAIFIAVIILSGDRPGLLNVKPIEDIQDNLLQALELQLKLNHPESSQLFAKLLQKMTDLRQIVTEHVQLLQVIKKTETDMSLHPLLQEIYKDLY
Experiment: PPARγ ligand binding assay utilizing [3H]-BRL 49653 as the radioligand (filtration)
Conditions: concentration required to reduce by 50% the specific binding of [3H]-BRL 49653
Excerpt: The compounds of the present invention can be evaluated for modulation of the PPARγ receptor using assays such as those described in Jiang, et al., Nature 391:82-86 (1998), Ricote, et al., Nature 391:79-82 (1998) and Lehmann, et al., J. Biol. Chem. 270(12): 12953-12956 (1995). Alternatively, the compounds can be evaluated for their ability to displace radiolabeled BRL 49653 from a PPARγ-GST fusion protein as follows:
PPARγ-GST fusion protein (prepared according to standard procedures), [^3H]-BRL 49653 having 50 Ci/mmol specific activity, Polyfiltronics Unifilter 350 filtration plate and glutathione-Sepharose® beads (from Pharmacia: washed twice with 10× binding buffer in which BSA and DTI can be left out).
Binding buffer (10 mM Tris-HCl, pH 8.0, 50 mM KCl, 10 mM DTT, 0.02% BSA and 0.0 1% NP-40) is added in 80-μL amounts to the wells of the filtration plate. The test compound is then added in 10 μL of DMSO. The PPARγ-GST fusion protein and radiolabeled BRL compound are premixed in binding buffer containing 10 mM DTT and added in 10-μL amounts to the wells of the plate to provide final concentrations of 1 µg/well of PPARγ-GST fusion protein and 10 nM [^3H]-BRL 49653 compound. The plate is incubated for 15 min. Glutathione-agarose bead is added in 50 μL of binding buffer, and the plate is vigorously shaken for one hour. The plate is washed four times with 200 μL/well of binding buffer (without BSA and DTT). The bottom of the plate is sealed and 200 μL/well of scintillation cocktail is added. The top of the plate is then sealed and the radioactivity is determined.
IC50 values are defined as the concentration of test compounds required to reduce by 50% the specific binding of [^3H]-BRL 49653 and are represented by (+)<30 μM; (++)<10 μM; (+++)<1 μM.

IC50 | Compound
< 1000 nM | CC(C)S(=O)(=O)c1ccc(Sc2ccc(NS(=O)(=O)c3ccc(Cl)cc3Cl)nc2C(=O)C2CC2)cc1 [Compound 107, 2,4-Dichloro-N-{6-cyclopropanecarbonyl-5-[4-(propane-2-sulfonyl)-phenylsulfanyl]-pyridin-2-yl}-benzenesulfonamide]
< 1000 nM | CCCCc1nc(NS(=O)(=O)c2ccc(Cl)cc2Cl)ccc1Sc1ccc(S(=O)(=O)N2CCCCC2)cc1 [Compound 122, N-{6-Butyl-5-[4-(piperidine-1-sulfonyl)-phenylsulfanyl]-pyridin-2-yl}-2,4-dichloro-benzenesulfonamide]
< 1000 nM | CCN(CC)S(=O)(=O)c1ccc(Sc2ccc(NS(=O)(=O)c3ccc(C(F)(F)F)cc3Cl)nc2C(=O)C2CC2)cc1 [Compound 100, 2-Chloro-N-[6-cyclopropanecarbonyl-5-(4-diethylsulfamoyl-phenylsulfanyl)-pyridin-2-yl]-4-trifluoromethyl-benzenesulfonamide]
< 1000 nM | CCCC(=O)c1nc(NS(=O)(=O)c2ccc(Cl)cc2Cl)ccc1Sc1ccc(S(=O)(=O)NCC)cc1 [Compound 118, N-[6-Butyryl-5-(4-ethylsulfamoyl-phenylsulfanyl)-pyridin-2-yl]-2,4-dichloro-benzenesulfonamide]
< 10000 nM | Cc1cc(Sc2ccc(S(=O)(=O)N3CCCCC3)cc2)nnc1NS(=O)(=O)c1ccc(C(F)(F)F)cc1Cl [Compound 137, 2-Chloro-N-{4-methyl-6-[4-(piperidine-1-sulfonyl) -phenylsulfanyl]-pyridazin-3-yl}-4-trifluoromethyl-benzenesulfonamide]
< 1000 nM | CCNS(=O)(=O)c1ccc(Sc2ccc(NS(=O)(=O)c3ccc(Cl)cc3Cl)nc2C(=O)C2CC2)cc1 [Compound 119, 2,4-Dichloro-N-[6-cyclopropanecarbonyl-5-(4-ethylsulfamoyl-phenylsulfanyl)-pyridin-2-yl]-benzenesulfonamide]
< 1000 nM | CCCCc1cc(NS(=O)(=O)c2ccc(C(F)(F)F)cc2Cl)nnc1Sc1ccc(S(=O)(=O)N2CCOCC2)cc1 [Compound 130, 3-(2′-chloro-4′-trifluoromethyl)phenylsulfonylamino-5-n-butyl-6-(4″-N-morpholinesulfonyl)phenylthiopyridazine]
< 1000 nM | CCCCc1nc(NS(=O)(=O)c2ccc(C(F)(F)F)cc2Cl)ccc1Sc1ccc(S(=O)(=O)N2CCOCC2)cc1 [Compound 125, N-{6-Butyl-5-[4-(morpholine-4-sulfonyl)-phenylsulfanyl]-pyridin-2-yl}-2-chloro-4-trifluoromethyl-benzenesulfonamide]
< 1000 nM | O=C(c1nc(NS(=O)(=O)c2ccc(C(F)(F)F)cc2Cl)ccc1Sc1ccc(S(=O)(=O)N2CCCCC2)cc1)C1CC1 [Compound 89, 2-Chloro-N-{6-cyclopropanecarbonyl-5-[4-(piperidine-1-sulfonyl)-phenylsulfanyl]-pyridin-2-yl}-4-trifluoromethyl-benzenesulfonamide]
< 1000 nM | CCCC(=O)c1nc(NS(=O)(=O)c2ccc(Cl)cc2Cl)ccc1Sc1ccc(S(=O)(=O)C(C)C)cc1 [Compound 106, N-{6-Butyryl-5-[4-(propane-2-sulfonyl)-phenylsulfanyl]-pyridin-2-yl}-2,4-dichloro-benzenesulfonamide]
< 1000 nM | O=C(c1nc(NS(=O)(=O)c2ccc(C(F)(F)F)cc2Cl)ccc1Sc1ccc(S(=O)(=O)C2CCCC2)cc1)C1CC1 [Compound 115, 2-Chloro-N-[5-(4-cyclopentanesulfonyl-phenylsulfanyl)-6-cyclopropanecarbonyl-pyridin-2-yl]-4-trifluoromethyl-benzenesulfonamide]

Continued, molecule first:

Compound | IC50
CCCNc1nc(NS(=O)(=O)c2ccc(Cl)cc2)ncc1Oc1ccc(S(=O)(=O)N2CCOCC2)cc1 [Compound 24, 4-Chloro-N-{5-[4-(morpholine-4-sulfonyl)-phenoxy]-4-propylamino-pyrimidin-2-yl}-benzenesulfonamide] | < 10000 nM
Cc1nc(NS(=O)(=O)c2ccc(Cl)cc2)ncc1Oc1ccc(S(=O)(=O)N2CCOCC2)cc1 [Compound 56, 4-Chloro-N-{4-methyl-5-[4-(morpholine-4-sulfonyl) -phenoxy]-pyrimidin-2-yl}-benzenesulfonamide] | < 30000 nM
CCCC(=O)c1nc(NS(=O)(=O)c2ccc(C(F)(F)F)cc2Cl)ccc1Sc1ccc(S(=O)(=O)N2CCCCC2)cc1 [Compound 81, N-{6-Butyryl-5-[4-(piperidine-1-sulfonyl)-phenylsulfanyl]-pyridin-2-yl}-2-chloro-4-trifluoromethyl-benzenesulfonamide] | < 1000 nM
Cc1nc(NS(=O)(=O)c2ccc(Cl)cc2Cl)ncc1Oc1ccc(Cl)c(Cl)c1 [Compound 60, 2,4-Dichloro-N-[5-(3,4-dichloro-phenoxy)-4-methyl-pyrimidin-2-yl]-benzenesulfonamide] | < 10000 nM
CCCC(=O)c1nc(NS(=O)(=O)c2ccc(Cl)cc2Cl)ccc1Sc1ccc(S(=O)(=O)N2CCCCC2)cc1 [Compound 73, N-{6-Butyryl-5-[4-(piperidine-1-sulfonyl)-phenylsulfanyl]-pyridin-2-yl}-2,4-dichloro-benzenesulfonamide] | < 1000 nM
CCCCCc1nc(NS(=O)(=O)c2ccc(Cl)cc2Cl)ncc1Sc1ccc(S(=O)(=O)N2CCCCC2)cc1 [Compound 47, 2,4-Dichloro-N-{4-pentyl-5-[4-(piperidine-1-sulfonyl) -phenylsulfanyl]-pyrimidin-2-yl}-benzenesulfonamide] | < 1000 nM
O=C(O)c1nc(NS(=O)(=O)c2ccc(Cl)cc2Cl)ccc1Sc1ccc(S(=O)(=O)N2CCCCC2)cc1 [Compound 71, 6-(2,4-Dichloro-benzenesulfonylamino)-3-[4-(piperidine-1-sulfonyl)-phenylsulfanyl]-pyridine-2-carboxylic acid] | < 10000 nM
CCCC(=O)c1nc(NS(=O)(=O)c2ccc(C(F)(F)F)cc2Cl)ccc1Sc1ccc(S(=O)(=O)N2CCOCC2)cc1 [Compound 87, N-{6-Butyryl-5-[4-(morpholine-4-sulfonyl)-phenylsulfanyl]-pyridin-2-yl}-2-chloro-4-trifluoromethyl-benzenesulfonamide] | < 1000 nM
Cc1cc(NS(=O)(=O)c2ccc(C(F)(F)F)cc2Cl)ncc1Sc1ccc(S(=O)(=O)N2CCOCC2)cc1 [Compound 74, 2-Chloro-N-{4-methyl-5-[4-(morpholine-4-sulfonyl) -phenylsulfanyl]-pyridin-2-yl}-4-trifluoromethyl-benzenesulfonamide] | < 1000 nM
Cc1cc(NS(=O)(=O)c2ccc(Cl)cc2Cl)ncc1Sc1ccc(S(=O)(=O)N2CCCCC2)cc1 [Compound 63, 2,4-Dichloro-N-{4-methyl-5-[4-(piperidine-1-sulfonyl) -phenylsulfanyl]-pyridin-2-yl}-benzenesulfonamide] | < 1000 nM
CC(C)CNc1nc(NS(=O)(=O)c2ccc(Cl)cc2Cl)ncc1Sc1ccc(S(=O)(=O)N2CCCCC2)cc1 [Compound 20, 2,4-Dichloro-N-{4-isobutylamino-5-[4-(piperidine-1-sulfonyl)-phenylsulfanyl]-pyrimidin-2-yl}-benzenesulfonamide] | < 1000 nM
Cc1cc(S(=O)(=O)Nc2cc(C)c(Sc3ccc(S(=O)(=O)N4CCCCC4)cc3)cn2)c(Cl)cc1Cl [Compound 62, 2,4-Dichloro-5-methyl-N-{4-methyl-5-[4-(piperidine-1-sulfonyl)-phenylsulfanyl]-pyridin-2-yl}-benzenesulfonamide] | < 1000 nM
CCCNc1nc(NS(=O)(=O)c2ccc(OC)cc2)ncc1Sc1ccc(S(=O)(=O)N2CCCCC2)cc1 [Compound 23, 4-Methoxy-N-{5-[4-(piperidine-1-sulfonyl)-phenylsulfanyl]-4-propylamino-pyrimidin-2-yl}-benzenesulfonamide] | < 10000 nM
Cc1cc(S(=O)(=O)Nc2ccc(Sc3ccc(S(=O)(=O)N4CCCCC4)cc3)cn2)c(Cl)cc1Cl [Compound 67, 2,4-Dichloro-5-methyl-N-{5-[4-(piperidine-1-sulfonyl) -phenylsulfanyl]-pyridin-2-yl}-benzenesulfonamide] | < 1000 nM
